What was measured:
[1] = test system: beta-galactosidase positive Eschericha coli (NM1); assay: IO staining of bacterial colonies on Nutrient Agar (color, fluorescence, localization, growth); for C: Color of colonies (strength): key: −: absent; +/−: weak; +: strong; ++: very strong; for F: Fluorescence of colonies (strength): key: −: absent; +/−: weak; +: strong; ++: very strong; for G: Growth of colonies: key: −: absent; +/−: weak; +: strong; ++: very strong; for L: Localization of stain on colonies: key: −: absent; +/−: weak; +: strong; ++: very strong; format: cell-based, E. coli; settings: 150 mg/l substrate and 100 mg/l IPTG; for C: Color of colonies (colour of stain) / C: Color of colonies (strength): 24 h on Nutrient Agar; for G: Growth of colonies / L: Localization of stain on colonies / F: Fluorescence of colonies (strength) / C: Color of colonies (strength): E. coli; for G: Growth of colonies / L: Localization of stain on colonies / F: Fluorescence of colonies (strength) / F: Fluorescence of colonies (colour): 24 h; for F: Fluorescence of colonies (strength) / F: Fluorescence of colonies (colour): 366 nm UV
Procedure: (§1) Nutrient Agar (5 g/l peptone, 5 g/l NaCl, 2 g/l yeast extract, 1 g/l beef extract, 13 g/l agar, pH 7.4) was autoclaved and allowed to cool to 50° C. Then indicators were added to final concentrations of 150 mg/l (from a 20 mg/ml stock solution in DMF).
(§2) Optionally IPTG was added to 100 mg/l (from a 100 mg/ml stock solution in H2O) and plates were poured. Agar plates were inoculated with cultures of beta-galactosidase positive Eschericha coli (NM1) or beta-galactosidase negative Salmonella enteritidis (RKI 05/07992) (pre-grown on nutrient broth for 8-18 hours) and incubated at 37° C. Plates were inspected at 16, 20, 24 and 48 hours and pictures were recorded at 18, 24, and 48 hours with a Digistore 2 Image documentation system (CAMAG) under white light.
(§3) A considerable number of indicators molecules (Table IVa, IVb) and a selection of labile groups (Table IVc) were tested with various microbial species producing different biomarker enzymes (external stimuli, eS). The color of stains ranges from yellow to red.
(§4) Plating media from Example 10 were examined under 366 nm UV irradiation at 16, 20, 24 and 48 hours for fluorescence by means of Digistore 2 Image documentation system (CAMAG). Loops of bacterial cells, grown for 48 hours on Nutrient Agar plates containing 150 mg/l beta-D-galactosidase indicator and 100 mg/l IPTG, were directly streaked into wells of black clear bottom microtiter plates. Fluorescence scans were recorded on a Spectramax M5 (Molecular Devices).

[2] = test system: beta-galactosidase negative Salmonella enteritidis (RKI 05/07992); format: cell-based; settings: S. enteritidis (b-gal negative), 24 h, 150 mg/l substrate and 100 mg/l IPTG; for F: Fluorescence of colonies (strength): 366 nm UV; for all read-outs here: key: −: absent; +/−: weak; +: strong; ++: very strong
Procedure: as §1, §2, §3, §4

SMILES	C: Color of colonies (colour of stain) [1]	G: Growth of colonies [1]	L: Localization of stain on colonies [1]	F: Fluorescence of colonies (strength) [1]	C: Color of colonies (strength) [1]	C: Color of colonies (strength) [2]	F: Fluorescence of colonies (strength) [2]	F: Fluorescence of colonies (colour) [1]
CC(=O)c1ccccc1-n1cc(O[C@@H]2O[C@H](CO)[C@H](O)[C@H](O)[C@H]2O)c2ccccc21 [Indicator I14a, 1-(2-Acetylphenyl)-1H-indol-3-yl-beta-D-galactopyranoside]	light yellow	+	+	−	+	−	−	
O=C(O)c1ccc(C(=O)c2ccccc2-n2cc(O[C@@H]3O[C@H](CO)[C@H](O)[C@H](O)[C@H]3O)c3ccc(Cl)cc32)o1 [Indicator I29a, 1-[2-(5-Carboxylfuranoyl)phenyl]-6-chloro-1H-indol-3-yl-beta-D-galactopyranoside]	red	+	−	−	+	−	−	
O=C(c1ccccc1)c1ccccc1-n1cc(O[C@@H]2O[C@H](CO)[C@H](O)[C@H](O)[C@H]2O)c2c(Cl)cccc21 [Indicator I20a, 1-(2-Benzoylphenyl)-4-chloro-1H-indol-3-yl-beta-D-galactopyranoside]	orange	+	cryst.	+/−	+/−	−	−	orange
O=C(c1ccco1)c1ccccc1-n1cc(O[C@@H]2O[C@H](CO)[C@H](O)[C@H](O)[C@H]2O)c2ccc(Cl)cc21 [Indicator I30a, 6-Chloro-1-(2-furanoylphenyl)-1H-indol-3-yl-beta-D-galactopyranoside]	dark orange	+	+/−	+/−	++	−	−	orange-red
COc1ccc(C(=O)c2ccccc2-n2cc(O[C@@H]3O[C@H](CO)[C@H](O)[C@H](O)[C@H]3O)c3c(Cl)cccc32)c(OC)c1 [Indicator I26a, 4-Chloro-1-[2-(2,4-dimethoxybenzoyl)phenyl]-1H-indol-3-yl-beta-D-galactopyranoside]	yellow-orange	+	+	+/−	+	−	−	orange
O=Cc1ccccc1-n1cc(O[C@@H]2O[C@H](CO)[C@H](O)[C@H](O)[C@H]2O)c2ccccc21 [Indicator I13a, 1-(2-Formylphenyl)-1H-indol-3-yl-beta-D-galactopyranoside]	cream-orange	+	+	−	+/−	−	−	
COc1ccc(C(=O)c2ccccc2)c(-n2cc(O[C@@H]3O[C@H](CO)[C@H](O)[C@H](O)[C@H]3O)c3ccc(Cl)cc32)c1 [Indicator I24a, 1-(2-Benzoyl-5-methoxyphenyl)-6-chloro-1H-indol-3-yl-beta-D-galactopyranoside]	dark yellow	+	+/−	+	+	−	−	yellow-green
CC(=O)c1ccccc1-n1cc(O[C@@H]2O[C@H](CO)[C@H](O)[C@H](O)[C@H]2O)c2c(Cl)c(Br)ccc21 [Indicator I17a, 1-(2-Acetylphenyl)-5-bromo-4-chloro-1H-indol-3-yl-beta-D-galactopyranoside]	yellow-orange	+	+	−	+	−	−	
COc1ccc(C(C)=O)c(-n2cc(O[C@@H]3O[C@H](CO)[C@H](O)[C@H](O)[C@H]3O)c3ccc(Cl)cc32)c1 [Indicator I18a, 1-(2-Acetyl-5-methoxyphenyl)-6-chloro-1H-indol-3-yl-beta-D-galactopyranoside]	light yellow	+	+/−	+/−	+	−	−	green
O=C(c1ccccc1)c1ccccc1-n1cc(O[C@@H]2O[C@H](CO)[C@H](O)[C@H](O)[C@H]2O)c2ccccc21 [Indicator I19a, 1-(2-Benzoylphenyl)-1H-indol-3-yl-beta-D-galactopyranoside]	yellow-orange	+	+	+	+	−	−	yellow
